Experimental data reported in ChEMBL document CHEMBL4507294, “Data for DCP probe MSD-CYP11B2” (2021).

Experiments:
[1] = biological target: Serine/threonine-protein kinase ULK2 (Homo sapiens) (UniProt Q8IYT8); conditions: Compound concentration 1000.0 nM
[2] = biological target: Dual specificity mitogen-activated protein kinase kinase 3 (Homo sapiens) (UniProt P46734); conditions: Compound concentration 1000.0 nM
[3] = biological target: Phosphorylase b kinase gamma catalytic chain, skeletal muscle/heart isoform (Homo sapiens) (UniProt Q16816); conditions: Compound concentration 1000.0 nM
[4] = system: Tyrosine-protein kinase ABL1 (Homo sapiens), P00519 [F317I]; conditions: Compound concentration 1000.0 nM
[5] = biological target: Serine/threonine-protein kinase N2 (Homo sapiens) (UniProt Q16513); conditions: Compound concentration 1000.0 nM
[6] = biological target: Protein-tyrosine kinase 2-beta (Homo sapiens) (UniProt Q14289); conditions: Compound concentration 1000.0 nM
[7] = biological target: Serine/threonine-protein kinase VRK2 (Homo sapiens) (UniProt Q86Y07); conditions: Compound concentration 1000.0 nM
[8] = biological target: Phosphatidylinositol 4-phosphate 5-kinase type-1 gamma (Homo sapiens) (UniProt O60331); conditions: Compound concentration 1000.0 nM
[9] = biological target: Mast/stem cell growth factor receptor Kit (Homo sapiens) (UniProt P10721); conditions: Compound concentration 1000.0 nM
[10] = biological target: Rhodopsin kinase GRK7 (Homo sapiens) (UniProt Q8WTQ7); conditions: Compound concentration 1000.0 nM
Rhodopsin kinase GRK7 (Homo sapiens), sequence (Q8WTQ7 whole entry): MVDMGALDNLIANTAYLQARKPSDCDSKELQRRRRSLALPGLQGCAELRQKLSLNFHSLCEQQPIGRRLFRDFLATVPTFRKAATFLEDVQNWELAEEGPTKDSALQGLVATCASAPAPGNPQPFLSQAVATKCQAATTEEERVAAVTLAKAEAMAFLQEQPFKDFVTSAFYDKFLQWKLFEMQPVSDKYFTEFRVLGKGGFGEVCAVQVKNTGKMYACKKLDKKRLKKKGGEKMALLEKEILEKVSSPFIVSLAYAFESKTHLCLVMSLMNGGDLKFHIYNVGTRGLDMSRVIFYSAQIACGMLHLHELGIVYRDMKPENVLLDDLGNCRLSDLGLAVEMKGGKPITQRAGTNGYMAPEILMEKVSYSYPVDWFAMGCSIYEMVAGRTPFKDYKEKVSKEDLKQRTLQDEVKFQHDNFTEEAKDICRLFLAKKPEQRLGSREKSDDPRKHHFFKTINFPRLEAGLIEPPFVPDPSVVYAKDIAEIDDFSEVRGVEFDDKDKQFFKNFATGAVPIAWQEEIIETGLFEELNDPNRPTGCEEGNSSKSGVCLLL

[11] = biological target: Ephrin type-A receptor 7 (Homo sapiens) (UniProt Q15375); conditions: Compound concentration 1000.0 nM
Ephrin type-A receptor 7 (Homo sapiens), sequence (Q15375 28-998 limits assumed): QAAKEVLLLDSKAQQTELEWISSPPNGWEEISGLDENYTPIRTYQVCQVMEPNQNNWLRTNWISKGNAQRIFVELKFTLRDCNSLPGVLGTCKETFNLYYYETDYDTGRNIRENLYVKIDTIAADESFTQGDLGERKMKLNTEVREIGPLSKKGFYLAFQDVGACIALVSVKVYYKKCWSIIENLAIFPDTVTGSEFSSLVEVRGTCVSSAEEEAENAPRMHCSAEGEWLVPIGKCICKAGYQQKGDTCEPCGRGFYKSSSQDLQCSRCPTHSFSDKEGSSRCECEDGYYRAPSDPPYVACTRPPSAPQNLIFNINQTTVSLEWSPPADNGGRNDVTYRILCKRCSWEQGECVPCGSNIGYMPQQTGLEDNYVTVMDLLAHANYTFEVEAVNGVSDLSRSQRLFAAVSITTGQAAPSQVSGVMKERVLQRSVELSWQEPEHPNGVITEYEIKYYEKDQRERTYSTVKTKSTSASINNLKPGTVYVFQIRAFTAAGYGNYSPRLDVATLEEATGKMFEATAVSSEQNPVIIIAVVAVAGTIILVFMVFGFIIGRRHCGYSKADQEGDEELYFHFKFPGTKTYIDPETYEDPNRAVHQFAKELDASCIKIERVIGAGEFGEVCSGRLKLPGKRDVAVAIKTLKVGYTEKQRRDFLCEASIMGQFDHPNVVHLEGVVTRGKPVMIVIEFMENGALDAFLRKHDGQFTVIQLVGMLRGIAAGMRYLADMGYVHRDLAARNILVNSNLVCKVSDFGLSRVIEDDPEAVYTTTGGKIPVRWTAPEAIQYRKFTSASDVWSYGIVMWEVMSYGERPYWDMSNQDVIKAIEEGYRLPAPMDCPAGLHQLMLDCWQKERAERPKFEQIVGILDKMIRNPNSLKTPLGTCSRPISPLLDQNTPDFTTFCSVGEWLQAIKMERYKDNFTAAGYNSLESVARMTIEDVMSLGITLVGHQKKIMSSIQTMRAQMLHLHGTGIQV

[12] = biological target: Dual specificity protein kinase TTK (Homo sapiens) (UniProt P33981); conditions: Compound concentration 1000.0 nM
[13] = system: Tyrosine-protein kinase ABL1 (Homo sapiens), P00519 [M351T]; conditions: Compound concentration 1000.0 nM
[14] = biological target: Serine/threonine-protein kinase LATS1 (Homo sapiens) (UniProt O95835); conditions: Compound concentration 1000.0 nM
[15] = biological target: Protein kinase C eta type (Homo sapiens) (UniProt P24723); conditions: Compound concentration 1000.0 nM
[16] = biological target: Calcium/calmodulin-dependent protein kinase kinase 2 (Homo sapiens) (UniProt Q96RR4); conditions: Compound concentration 1000.0 nM
[17] = system: Tyrosine-protein kinase ABL1 (Homo sapiens), P00519 [T315I]; conditions: Compound concentration 1000.0 nM
[18] = biological target: Tyrosine-protein kinase JAK2 (Homo sapiens) (UniProt O60674); conditions: Compound concentration 1000.0 nM
Tyrosine-protein kinase JAK2 (Homo sapiens), sequence (O60674 whole entry): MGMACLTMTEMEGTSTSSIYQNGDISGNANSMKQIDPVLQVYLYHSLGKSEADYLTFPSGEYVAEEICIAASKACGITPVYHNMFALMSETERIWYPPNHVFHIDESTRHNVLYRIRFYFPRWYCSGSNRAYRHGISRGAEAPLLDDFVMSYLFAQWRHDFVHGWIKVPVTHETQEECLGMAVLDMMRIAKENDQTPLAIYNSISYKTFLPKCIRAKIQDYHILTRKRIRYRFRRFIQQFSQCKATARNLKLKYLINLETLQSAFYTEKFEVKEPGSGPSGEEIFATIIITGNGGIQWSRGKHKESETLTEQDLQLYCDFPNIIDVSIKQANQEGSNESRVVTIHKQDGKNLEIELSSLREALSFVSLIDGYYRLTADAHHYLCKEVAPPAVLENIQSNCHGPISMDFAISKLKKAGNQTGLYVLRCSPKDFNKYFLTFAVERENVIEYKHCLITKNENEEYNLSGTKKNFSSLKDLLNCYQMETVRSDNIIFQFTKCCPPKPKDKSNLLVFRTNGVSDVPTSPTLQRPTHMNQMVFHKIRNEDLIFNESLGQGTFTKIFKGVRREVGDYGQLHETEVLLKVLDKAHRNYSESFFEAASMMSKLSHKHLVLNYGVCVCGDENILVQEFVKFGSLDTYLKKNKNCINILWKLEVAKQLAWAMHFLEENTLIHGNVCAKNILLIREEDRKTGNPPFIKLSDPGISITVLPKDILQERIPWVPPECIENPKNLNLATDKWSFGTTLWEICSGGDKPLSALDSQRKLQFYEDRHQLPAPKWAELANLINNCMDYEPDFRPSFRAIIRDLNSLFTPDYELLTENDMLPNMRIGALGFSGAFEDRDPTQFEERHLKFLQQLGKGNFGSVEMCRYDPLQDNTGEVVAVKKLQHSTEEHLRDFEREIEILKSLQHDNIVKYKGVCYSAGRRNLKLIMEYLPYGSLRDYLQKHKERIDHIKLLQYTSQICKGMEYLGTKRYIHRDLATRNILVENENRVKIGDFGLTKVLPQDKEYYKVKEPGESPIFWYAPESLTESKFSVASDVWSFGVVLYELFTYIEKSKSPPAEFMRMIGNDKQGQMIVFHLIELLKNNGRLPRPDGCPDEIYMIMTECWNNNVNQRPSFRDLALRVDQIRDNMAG

[19] = biological target: T1, 5-hydroxytryptamine receptor 2C (Homo sapiens) (UniProt P28335); conditions: Compound concentration 10.0 uM
T1 sequence (whole entry): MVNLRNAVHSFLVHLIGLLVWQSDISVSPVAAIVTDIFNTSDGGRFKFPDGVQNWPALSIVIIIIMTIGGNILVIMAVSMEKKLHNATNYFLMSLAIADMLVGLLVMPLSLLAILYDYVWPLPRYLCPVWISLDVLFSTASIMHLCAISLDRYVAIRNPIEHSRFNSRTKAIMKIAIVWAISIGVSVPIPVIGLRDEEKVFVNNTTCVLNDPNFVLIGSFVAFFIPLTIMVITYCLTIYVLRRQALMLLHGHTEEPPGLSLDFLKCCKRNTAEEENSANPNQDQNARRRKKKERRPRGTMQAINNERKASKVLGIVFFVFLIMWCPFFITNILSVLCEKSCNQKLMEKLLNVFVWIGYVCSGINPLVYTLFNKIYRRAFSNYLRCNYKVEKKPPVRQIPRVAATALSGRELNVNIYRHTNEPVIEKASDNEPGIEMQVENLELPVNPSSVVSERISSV

[20] = biological target: Calcium/calmodulin-dependent protein kinase type 1D (Homo sapiens) (UniProt Q8IU85); conditions: Compound concentration 1000.0 nM
[21] = biological target: Serine/threonine-protein kinase BRSK1 (Homo sapiens) (UniProt Q8TDC3); conditions: Compound concentration 1000.0 nM
[22] = biological target: Serine/threonine-protein kinase 35 (Homo sapiens) (UniProt Q8TDR2); conditions: Compound concentration 1000.0 nM
[23] = biological target: RAC-gamma serine/threonine-protein kinase (Homo sapiens) (UniProt Q9Y243); conditions: Compound concentration 1000.0 nM
[24] = biological target: Inhibitor of nuclear factor kappa-B kinase subunit beta (Homo sapiens) (UniProt O14920); conditions: Compound concentration 1000.0 nM
[25] = biological target: G protein-coupled receptor kinase 4 (Homo sapiens) (UniProt P32298); conditions: Compound concentration 1000.0 nM
[26] = biological target: Serine/threonine-protein kinase TAO2 (Homo sapiens) (UniProt Q9UL54); conditions: Compound concentration 1000.0 nM
[27] = biological target: Phosphatidylinositol 4-phosphate 3-kinase C2 domain-containing subunit beta (Homo sapiens) (UniProt O00750); conditions: Compound concentration 1000.0 nM
Phosphatidylinositol 4-phosphate 3-kinase C2 domain-containing subunit beta (Homo sapiens), sequence (O00750 whole entry, the tested form may be a part): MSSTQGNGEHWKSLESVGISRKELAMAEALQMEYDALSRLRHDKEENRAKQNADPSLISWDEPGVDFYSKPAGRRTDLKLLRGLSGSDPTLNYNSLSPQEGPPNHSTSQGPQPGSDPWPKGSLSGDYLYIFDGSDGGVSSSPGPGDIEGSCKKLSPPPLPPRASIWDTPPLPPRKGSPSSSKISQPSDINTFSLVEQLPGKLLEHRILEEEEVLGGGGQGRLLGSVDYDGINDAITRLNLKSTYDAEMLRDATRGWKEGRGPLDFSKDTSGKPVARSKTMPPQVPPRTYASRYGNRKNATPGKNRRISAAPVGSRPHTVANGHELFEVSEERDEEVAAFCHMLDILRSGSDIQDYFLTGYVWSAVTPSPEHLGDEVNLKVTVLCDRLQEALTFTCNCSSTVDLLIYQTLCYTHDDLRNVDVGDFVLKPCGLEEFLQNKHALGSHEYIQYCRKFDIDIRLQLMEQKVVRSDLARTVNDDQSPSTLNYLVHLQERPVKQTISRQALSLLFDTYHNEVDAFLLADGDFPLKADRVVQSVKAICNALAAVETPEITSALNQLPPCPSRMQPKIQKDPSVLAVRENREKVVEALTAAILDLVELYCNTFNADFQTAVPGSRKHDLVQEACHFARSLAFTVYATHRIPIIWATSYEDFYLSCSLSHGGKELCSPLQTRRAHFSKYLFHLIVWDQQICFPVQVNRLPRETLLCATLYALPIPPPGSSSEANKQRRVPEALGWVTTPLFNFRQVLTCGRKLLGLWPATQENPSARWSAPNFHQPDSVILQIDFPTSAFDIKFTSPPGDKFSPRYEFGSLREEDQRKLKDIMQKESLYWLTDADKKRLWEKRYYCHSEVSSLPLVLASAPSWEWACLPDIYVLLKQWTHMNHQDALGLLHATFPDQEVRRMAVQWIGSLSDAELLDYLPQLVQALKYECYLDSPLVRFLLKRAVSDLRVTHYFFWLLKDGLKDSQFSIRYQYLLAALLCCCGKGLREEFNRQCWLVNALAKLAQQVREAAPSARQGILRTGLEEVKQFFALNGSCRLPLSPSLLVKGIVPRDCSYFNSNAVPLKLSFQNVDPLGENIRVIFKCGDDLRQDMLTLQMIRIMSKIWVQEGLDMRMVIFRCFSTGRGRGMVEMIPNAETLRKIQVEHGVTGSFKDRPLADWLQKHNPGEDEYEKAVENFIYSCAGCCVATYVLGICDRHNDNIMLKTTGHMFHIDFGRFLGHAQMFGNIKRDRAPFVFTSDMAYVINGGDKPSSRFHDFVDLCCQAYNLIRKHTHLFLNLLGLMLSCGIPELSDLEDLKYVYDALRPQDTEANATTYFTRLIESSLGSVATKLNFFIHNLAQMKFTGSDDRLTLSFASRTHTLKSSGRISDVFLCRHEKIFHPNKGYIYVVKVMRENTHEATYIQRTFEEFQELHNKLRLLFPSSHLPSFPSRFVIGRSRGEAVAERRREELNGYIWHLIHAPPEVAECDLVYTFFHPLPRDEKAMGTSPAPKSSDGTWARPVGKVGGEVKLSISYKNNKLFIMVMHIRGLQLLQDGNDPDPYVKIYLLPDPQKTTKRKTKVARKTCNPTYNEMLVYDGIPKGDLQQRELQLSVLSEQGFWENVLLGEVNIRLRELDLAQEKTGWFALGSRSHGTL

[28] = biological target: Non-receptor tyrosine-protein kinase TNK1 (Homo sapiens) (UniProt Q13470); conditions: Compound concentration 1000.0 nM
[29] = biological target: Mitogen-activated protein kinase 10 (Homo sapiens) (UniProt P53779); conditions: Compound concentration 1000.0 nM
[30] = biological target: Cyclin-dependent kinase 11A (Homo sapiens) (UniProt Q9UQ88); conditions: Compound concentration 1000.0 nM
[31] = biological target: Cyclin-dependent kinase 13 (Homo sapiens) (UniProt Q14004); conditions: Compound concentration 1000.0 nM
[32] = biological target: BDNF/NT-3 growth factors receptor (Homo sapiens) (UniProt Q16620); conditions: Compound concentration 1000.0 nM
[33] = biological target: Mitogen-activated protein kinase kinase kinase kinase 4 (Homo sapiens) (UniProt O95819); conditions: Compound concentration 1000.0 nM
[34] = biological target: Mitogen-activated protein kinase kinase kinase 6 (Homo sapiens) (UniProt O95382); conditions: Compound concentration 1000.0 nM
[35] = biological target: Cyclin-dependent kinase 2 homolog (Plasmodium falciparum (isolate 3D7)) (UniProt P61075); conditions: Compound concentration 1000.0 nM
Cyclin-dependent kinase 2 homolog (Plasmodium falciparum (isolate 3D7)), sequence (P61075 whole entry): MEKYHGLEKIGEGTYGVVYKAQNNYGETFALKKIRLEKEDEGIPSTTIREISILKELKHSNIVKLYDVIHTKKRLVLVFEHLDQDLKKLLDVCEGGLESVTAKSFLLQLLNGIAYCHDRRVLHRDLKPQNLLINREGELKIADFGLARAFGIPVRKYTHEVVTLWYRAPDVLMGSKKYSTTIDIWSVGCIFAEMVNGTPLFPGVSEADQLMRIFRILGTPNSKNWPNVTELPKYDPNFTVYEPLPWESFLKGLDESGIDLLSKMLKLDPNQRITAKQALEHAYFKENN

[36] = biological target: Serine/threonine-protein kinase PLK4 (Homo sapiens) (UniProt O00444); conditions: Compound concentration 1000.0 nM
[37] = biological target: Bone morphogenetic protein receptor type-1B (Homo sapiens) (UniProt O00238); conditions: Compound concentration 1000.0 nM
Bone morphogenetic protein receptor type-1B (Homo sapiens), sequence (O00238 whole entry, canonical isoform): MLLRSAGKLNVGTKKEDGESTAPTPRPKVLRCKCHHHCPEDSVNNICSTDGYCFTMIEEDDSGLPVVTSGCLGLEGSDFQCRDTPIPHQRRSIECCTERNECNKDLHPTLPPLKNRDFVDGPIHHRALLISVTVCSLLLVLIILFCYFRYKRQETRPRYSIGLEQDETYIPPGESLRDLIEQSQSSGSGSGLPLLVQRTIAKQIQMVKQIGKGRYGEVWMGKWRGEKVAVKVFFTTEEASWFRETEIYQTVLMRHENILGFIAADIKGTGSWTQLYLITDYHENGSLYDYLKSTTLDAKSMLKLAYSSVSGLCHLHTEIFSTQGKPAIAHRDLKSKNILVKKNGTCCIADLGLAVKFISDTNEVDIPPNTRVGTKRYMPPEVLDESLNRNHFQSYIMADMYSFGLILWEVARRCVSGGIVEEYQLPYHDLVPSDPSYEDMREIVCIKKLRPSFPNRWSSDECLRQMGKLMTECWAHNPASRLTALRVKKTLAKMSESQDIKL

[38] = system: Phosphatidylinositol 4,5-bisphosphate 3-kinase catalytic subunit alpha isoform (Homo sapiens), P42336 [Q546K]; conditions: Compound concentration 1000.0 nM

SMILES | residual activity [1] | residual activity [2] | residual activity [3] | residual activity [4] | residual activity [5] | residual activity [6] | residual activity [7] | residual activity [8] | residual activity [9] | residual activity [10] | residual activity [11] | residual activity [12] | residual activity [13] | residual activity [14] | residual activity [15] | residual activity [16] | residual activity [17] | residual activity [18] | inhibition [19] | residual activity [20] | other results
CC(C)(O)c1cncc(-c2nc3ccc(F)cc3n2C2CC2)c1 [MSD-CYP11B2] | 100% | 100% | 100% | 100% | 100% | 100% | 100% | 100% | 100% | 86% | 100% | 100% | 100% | 82% | 98% | 100% | 100% | 100% | 100% | 100% | residual activity [21]: 100%; residual activity [22]: 100%; residual activity [23]: 100%; residual activity [24]: 100%; residual activity [25]: 100%; residual activity [26]: 100%; residual activity [27]: 95%; residual activity [28]: 100%; residual activity [29]: 100%; residual activity [30]: 100%; residual activity [31]: 96%; residual activity [32]: 100%; residual activity [33]: 72%; residual activity [34]: 100%; residual activity [35]: 100%; residual activity [36]: 79%; residual activity [37]: 96%; residual activity [38]: 78%
FC(F)(F)c1ccc2c(c1)nc(-c1cccnc1)n2C1CC1 [MSD-CYP11B2-Negative-control] | 100% | 100% | 100% | 100% | 100% | 100% | 100% | 85% | 100% | 81% | 100% | 100% | 100% | 86% | 100% | 100% | 100% | 100% | 30.8% | 100% | residual activity [21]: 100%; residual activity [22]: 100%; residual activity [23]: 100%; residual activity [24]: 100%; residual activity [25]: 100%; residual activity [26]: 99%; residual activity [27]: 100%; residual activity [28]: 100%; residual activity [29]: 100%; residual activity [30]: 100%; residual activity [31]: 100%; residual activity [32]: 100%; residual activity [33]: 100%; residual activity [34]: 100%; residual activity [35]: 100%; residual activity [36]: 78%; residual activity [37]: 83%; residual activity [38]: 99%
